Assay results from publication PMC10363080, “Modulatory Effect of Pyrus pyrifolia Fruit and its Phenolics on Key Enzymes against Metabolic Syndrome: Bioassay-Guided Approach, HPLC Analysis, and In Silico Study” (Plant Foods for Human Nutrition (Dordrecht, Netherlands), 2023).

Legend:
ACE1 = ACE1 (Homo sapiens, UniProt P12821); experiment: Angiotensin conversion enzyme (ACE) inhibitory activity (HHL substrate); assay type: biochemical; details: isolated compounds, Table S7; read-out: Inhibition (IC50) ACE1
Protocol: (§1) Phenolic acids and flavonoids used in HPLC analysis as well as all other reagents for biological investigations were obtained from Sigma Chemical Company […]
(§2) Inhibitory activity against key enzymes related to metabolic syndrome (MS) All assays were performed in 96-well plates. Stock solutions of the extract (100 mg/mL), fractions (100 mg/mL), and isolated compounds (1000 µM) were prepared. Tested samples that exceeded […]
(§3) inhibitory concentration (IC50). The percentage of enzyme inhibition was calculated according to […]
(§4) % Inhibition = (A−B) − (C−D) x 100 […]
Pancreatic lipase inhibitory activity […]

Recombinant renin = molecular target: T1, Recombinant renin (Homo sapiens, UniProt P00797); experiment: Renin inhibitory activity (renin-inhibitor screening assay kit); assay type: biochemical; details: isolated compounds, Table S7; read-out: Inhibition (IC50) Renin (converted)
T1 construct: purchased BPS Bioscince
T1 sequence (P00797 67-406): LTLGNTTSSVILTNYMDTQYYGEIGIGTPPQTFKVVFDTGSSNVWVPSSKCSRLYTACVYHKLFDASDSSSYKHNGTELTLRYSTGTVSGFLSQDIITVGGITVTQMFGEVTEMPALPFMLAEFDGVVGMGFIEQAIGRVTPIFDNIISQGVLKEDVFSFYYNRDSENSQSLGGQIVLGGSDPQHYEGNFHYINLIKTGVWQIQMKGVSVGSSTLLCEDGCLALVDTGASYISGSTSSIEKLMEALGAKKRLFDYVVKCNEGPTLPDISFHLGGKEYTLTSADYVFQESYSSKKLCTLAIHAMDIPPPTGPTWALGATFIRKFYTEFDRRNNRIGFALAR
Protocol: (§5) all of analytical grade. […]
as §1, §2, §3, §4
Renin inhibitory activity
The renin inhibitory activity was examined according to a previously described method using renin-inhibitor screening assay kit (BPS Bioscince, San Diego, CA, USA) and quinapril as a reference drug. Recombinant renin enzyme (50 μL) was dissolved in 50-mM Tris-HCl buffer (pH 8.0) and 100-mM NaCl (assay buffer) and stored at –80°C for further analysis. Twenty μL of renin substrate (A500 μM in DMSO), 150 μL of assay buffer, and 10 μL of each sample were used to prepare test solutions (10mg/ml in methanol). The blank samples were made using 10 μL of the sample, 20 μL of the substrate, and 160 μL of assay buffer. The positive control samples were created using 10 μL of methanol, 20 μL of substrate, and 150 μL of assay buffer. The positive control and tested samples were combined with 10 μL of the renin solution for the assay in order to catalyze the reaction. After that, the reaction mixture was incubated for 45 minutes at 37 °C.
The fluorescence generated at the 340 nm excitation and 490 nm emission wavelengths was measured using a microplate reader.
Xanthine oxidase (XO) inhibitory activity
Xanthine oxidase (XO) inhibitory potential was carried out according to a previous designed procedure using xanthine oxidase (XO, EC 1.17.3.2; Biovision, USA). Allopurinol was applied as a reference drug. Immediately prior to use, a mixture was made up of 50 μL of sample solution, 35 μL of phosphate buffer (70 mM, pH = 7.5), and 30 μL of new enzyme solution (0.01 units/mL in the same buffer). The reaction was started by adding 60 μL of the substrate solution (150 μM xanthine in the same buffer) following a pre-incubation at 25 °C for 15 minutes. After that, the mixture was incubated at 25 °C for 30 min. After adding 25 μL of 1 M HCl to terminate the reaction, the absorbance was measured at 290 nm with a microplate reader as previously

[1] = Ferric reducing antioxidant power (FRAP) assay; parameters: FRAP AA (%) antioxidant activity percentage: concentration or dose not given beside the values; details: for FRAP antioxidant activity: Trolox equivalent per gram of sample, mean ± SD, n=3; for FRAP AA (%) antioxidant activity percentage: compared to ascorbic acid (=100)
Protocol: (§6) all of analytical grade. An electrothermal 9100 (UK) was used for the determination of melting points (uncorrected). A Jenway model 6800 spectrophotometer was utilized for recording UV spectra. A Tecan, microplate reader, ((Infinite F50, Switzerland)) was used to measure the absorbances. A Bruker NMR system was used for 1H-NMR (400 MHz) and 13C-NMR (100 MHz).
(§7) The NMR spectra were determined in CD3OH and DMSO-d6. Chemical shifts are given in δ (ppm) relative to the internal standard TMS. Phenolic acids and flavonoids used in HPLC analysis as well as all other reagents for biological investigations were obtained from Sigma Chemical Company […]
(§8) Determination of the antioxidant activity
(§9) 2,2`-Azino-bis(3-ethylbenzothiazoline-6-sulfonic acid) (ABTS), ferric reducing antioxidant power (FRAP), and oxygen radical absorbance capacity (ORAC) assays were performed according to the previously published procedures. Ascorbic acid was used as a reference antioxidant […]
drug. […]

[2] = Oxygen radical absorbance capacity (ORAC) assay; details: for ORAC antioxidant activity: Trolox equivalent per gram of sample, mean ± SD, n=3; for ORAC AA (%) antioxidant activity percentage: compared to ascorbic acid (=100)
Protocol: as §6, §7, §8, §9
drug. […]

xanthine oxidase (XO) = xanthine oxidase (XO) (Bos taurus, UniProt P80457); experiment: Xanthine oxidase (XO) inhibitory activity; assay type: biochemical; details: isolated compounds, Table S7; read-out: Inhibition (IC50) XO
Protocol: as §5, §1, §2, §3

[3] = ABTS radical scavenging antioxidant assay; parameters: ABTS AA (%) antioxidant activity percentage: concentration or dose not given beside the values; details: for ABTS antioxidant activity: Trolox equivalent per gram of sample, mean ± SD, n=3; for ABTS AA (%) antioxidant activity percentage: compared to ascorbic acid (=100)
Protocol: as §6, §7, §8, §9
drug. […]

[4] = molecular target: T2, porcine pancreatic lipase (Sus scrofa, UniProt P00591); experiment: Pancreatic lipase inhibitory activity; assay type: biochemical; details: isolated compounds, Table S7; read-out: Inhibition (IC50) Lipase
T2 construct: purchased Abnova
T2 sequence (P00591 1-450): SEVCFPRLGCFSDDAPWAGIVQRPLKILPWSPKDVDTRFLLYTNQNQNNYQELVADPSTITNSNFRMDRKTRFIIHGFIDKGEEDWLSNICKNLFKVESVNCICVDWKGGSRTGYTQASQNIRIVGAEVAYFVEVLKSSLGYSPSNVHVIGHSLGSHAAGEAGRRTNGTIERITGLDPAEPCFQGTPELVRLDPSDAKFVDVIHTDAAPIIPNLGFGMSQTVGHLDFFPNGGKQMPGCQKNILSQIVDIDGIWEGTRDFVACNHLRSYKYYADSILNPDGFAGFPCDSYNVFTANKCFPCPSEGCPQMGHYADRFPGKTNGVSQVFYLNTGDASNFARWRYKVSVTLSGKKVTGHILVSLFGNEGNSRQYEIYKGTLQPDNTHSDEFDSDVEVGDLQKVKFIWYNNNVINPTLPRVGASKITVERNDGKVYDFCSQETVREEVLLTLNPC
Protocol: as §1, §2, §3, §4
Pancreatic lipase inhibitory activity
The pancreatic lipase inhibitory activity was assessed using p-nitrophenyl dodecanoate (p-NPD) as substrate and porcine pancreatic lipase (Abnova, Taipei, Taiwan) which was described […]
previously. […] The tested samples were diluted in DMSO were incubated with 10 g L−1 PL (diluted in 0.05 mol L−1 Tris-HCl buffer pH 8.0, containing […]
in 0.5% TritonX 100) (m v−1) was added to initiate the reaction. The absorbances were measured

ACE1, sequence (P12821 30-1232): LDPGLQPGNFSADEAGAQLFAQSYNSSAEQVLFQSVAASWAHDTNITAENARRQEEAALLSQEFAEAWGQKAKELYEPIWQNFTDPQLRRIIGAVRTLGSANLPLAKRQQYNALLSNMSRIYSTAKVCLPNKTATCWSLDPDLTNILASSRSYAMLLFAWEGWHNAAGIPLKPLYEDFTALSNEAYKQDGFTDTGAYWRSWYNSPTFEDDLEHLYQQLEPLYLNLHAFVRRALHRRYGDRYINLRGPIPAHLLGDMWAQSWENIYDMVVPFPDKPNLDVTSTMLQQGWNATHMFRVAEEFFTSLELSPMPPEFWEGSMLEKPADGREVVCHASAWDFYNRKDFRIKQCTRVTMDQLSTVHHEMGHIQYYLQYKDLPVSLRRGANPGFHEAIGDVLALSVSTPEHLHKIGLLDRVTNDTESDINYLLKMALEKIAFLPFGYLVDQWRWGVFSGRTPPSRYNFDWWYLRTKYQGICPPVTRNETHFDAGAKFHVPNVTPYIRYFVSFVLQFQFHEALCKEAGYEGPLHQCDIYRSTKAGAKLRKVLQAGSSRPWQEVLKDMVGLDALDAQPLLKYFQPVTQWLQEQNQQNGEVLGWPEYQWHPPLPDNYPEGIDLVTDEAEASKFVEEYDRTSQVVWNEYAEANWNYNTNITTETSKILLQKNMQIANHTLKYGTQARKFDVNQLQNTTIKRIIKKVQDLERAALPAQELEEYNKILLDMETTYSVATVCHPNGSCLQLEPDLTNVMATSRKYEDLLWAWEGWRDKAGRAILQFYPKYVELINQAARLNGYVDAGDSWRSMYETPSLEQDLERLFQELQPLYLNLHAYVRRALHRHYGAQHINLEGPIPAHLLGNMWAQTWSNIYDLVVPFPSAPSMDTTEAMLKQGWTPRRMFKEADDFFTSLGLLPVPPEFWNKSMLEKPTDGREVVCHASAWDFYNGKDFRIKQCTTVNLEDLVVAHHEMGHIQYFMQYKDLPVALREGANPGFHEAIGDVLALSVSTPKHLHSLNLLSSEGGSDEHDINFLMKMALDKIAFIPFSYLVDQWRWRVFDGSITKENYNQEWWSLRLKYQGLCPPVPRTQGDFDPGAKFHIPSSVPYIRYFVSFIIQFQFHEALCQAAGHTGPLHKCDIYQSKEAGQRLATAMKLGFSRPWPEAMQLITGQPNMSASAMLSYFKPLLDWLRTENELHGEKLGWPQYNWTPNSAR
xanthine oxidase (XO), sequence (P80457 2-1332): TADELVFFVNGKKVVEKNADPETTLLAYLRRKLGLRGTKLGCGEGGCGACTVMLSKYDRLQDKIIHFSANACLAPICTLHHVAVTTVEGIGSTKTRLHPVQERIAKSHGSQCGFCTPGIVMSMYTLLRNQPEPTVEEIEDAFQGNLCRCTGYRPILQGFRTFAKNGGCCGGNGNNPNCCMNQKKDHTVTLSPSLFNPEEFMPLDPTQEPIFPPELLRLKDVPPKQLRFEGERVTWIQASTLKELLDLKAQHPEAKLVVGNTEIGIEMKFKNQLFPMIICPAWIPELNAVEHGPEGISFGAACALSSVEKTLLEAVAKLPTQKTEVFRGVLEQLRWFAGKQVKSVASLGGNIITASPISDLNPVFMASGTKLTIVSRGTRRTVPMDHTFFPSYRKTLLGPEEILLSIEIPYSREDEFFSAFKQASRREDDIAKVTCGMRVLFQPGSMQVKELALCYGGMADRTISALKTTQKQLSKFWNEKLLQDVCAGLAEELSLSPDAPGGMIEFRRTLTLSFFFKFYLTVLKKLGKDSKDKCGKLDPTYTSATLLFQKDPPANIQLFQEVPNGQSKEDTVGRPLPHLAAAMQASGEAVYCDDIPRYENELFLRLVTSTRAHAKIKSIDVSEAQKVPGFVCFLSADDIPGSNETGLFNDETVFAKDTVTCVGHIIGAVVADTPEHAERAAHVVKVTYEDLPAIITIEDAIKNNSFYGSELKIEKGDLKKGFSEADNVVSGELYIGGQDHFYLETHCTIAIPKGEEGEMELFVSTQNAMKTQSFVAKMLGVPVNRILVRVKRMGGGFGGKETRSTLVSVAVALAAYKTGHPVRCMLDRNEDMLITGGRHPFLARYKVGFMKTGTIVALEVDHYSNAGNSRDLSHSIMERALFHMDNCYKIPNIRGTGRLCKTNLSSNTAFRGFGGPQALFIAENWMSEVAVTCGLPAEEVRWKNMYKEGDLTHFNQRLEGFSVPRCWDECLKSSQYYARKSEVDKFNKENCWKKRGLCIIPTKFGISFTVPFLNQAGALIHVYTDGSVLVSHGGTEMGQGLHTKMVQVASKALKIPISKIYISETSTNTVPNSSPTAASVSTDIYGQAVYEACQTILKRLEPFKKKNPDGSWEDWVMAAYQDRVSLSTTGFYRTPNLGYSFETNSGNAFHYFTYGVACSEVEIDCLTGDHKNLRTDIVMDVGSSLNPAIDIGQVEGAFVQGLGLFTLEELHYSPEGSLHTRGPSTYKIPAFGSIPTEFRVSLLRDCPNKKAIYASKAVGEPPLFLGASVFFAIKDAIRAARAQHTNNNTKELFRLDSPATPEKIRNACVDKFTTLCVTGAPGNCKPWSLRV

Structure (SMILES) | IC50 (ACE1) [nM] | IC50 (Recombinant renin) [nM] | FRAP antioxidant activity [1] [μM TE/g] | FRAP AA (%) antioxidant activity percentage [1] [%] | ORAC antioxidant activity [2] [μM TE/g] | ORAC AA (%) antioxidant activity percentage [2] [%] | IC50 (xanthine oxidase (XO)) [nM] | ABTS antioxidant activity [3] [μM TE/g] | ABTS AA (%) antioxidant activity percentage [3] [%] | IC50 [4] [nM] | FRAP antioxidant activity ([1]; listed as Cinnamic acid (P6)) [μM TE/g] | ORAC antioxidant activity ([2]; listed as Cinnamic acid (P6)) [μM TE/g] | ABTS antioxidant activity ([3]; listed as Cinnamic acid (P6)) [μM TE/g]
COc1cc(-c2oc3cc(O)cc(O)c3c(=O)c2O[C@@H]2O[C@H](CO)[C@@H](O)[C@H](O)[C@H]2O)ccc1O [P3, isorhamnetin-3-O-β-D-glucopyranoside] | 310 ± 860 | 34800 ± 790 | 125.08±0.72 | 80.58 | 320.78±0.55 | 82.21 | 3560 ± 830 | 229.71±0.38 | 79.82 | 780 ± 750 | – | – | –
O=c1c(O[C@@H]2O[C@H](CO)[C@@H](O)[C@H](O)[C@H]2O)c(-c2ccc(O)c(O)c2)oc2cc(O)cc(O)c12 [P2, isoquercitrin] | – | 24800 ± 1300 | 137.27±0.53 | 88.44 | 346.28±0.29 | 88.74 | – | 240.75±0.28 | 83.66 | 570 ± 30 | – | – | –
O=C(/C=C/c1ccc(O)c(O)c1)O[C@@H]1C[C@](O)(C(=O)O)C[C@@H](O)[C@H]1O [P4, chlorogenic acid] | – | 47800 ± 250 | – | – | – | – | – | – | – | 1310 ± 290 | – | – | –
O=C(O)/C=C/c1ccccc1 [P6, cinnamic acid] | – | 20700 ± 800 | 141.26±0.91 | 91.01 | 362.55±1.20 | 92.91 | – | 250.28±0.21 | 86.97 | 350 ± 520 | 141.26 ± 0.91 | 362.55 ± 1.20 | 250.28 ± 0.21
C[C@@H]1O[C@@H](OC[C@H]2O[C@@H](Oc3c(-c4ccc(O)c(O)c4)oc4cc(O)cc(O)c4c3=O)[C@H](O)[C@@H](O)[C@@H]2O)[C@H](O)[C@H](O)[C@H]1O [P1, rutin] | – | 40800 ± 1300 | 99.28 ±0.98 | 63.96 | 266.30±0.75 | 68.25 | – | 180.29±1.08 | 62.64 | 980 ± 670 | – | – | –
